In PubChem BioAssay AID1963961 (Molecular Pharmacology Branch, DTP, NCI, 2024):
pIC50: −log10 of the molar value.

System: K98450-129-R-PDC multicell spheroids, viability
Assay: Anticancer human tumor K98450-129-R-PDC patient-derived colon adenocarcinoma cell line growth inhibition [PI3K]
Conditions: for pIC50: curve of first compound; for viability, T/C: stronger effect = lower value
How it was run: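 Combination activity was assessed by viability in multicellular tumor spheroids carrying HUVEC and MSC components. Agents were tested with PI3K inhibitors from a Cmax-based top dose (or 10 microM) downward in half-log increments.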

[1] = second compound 0.00316 µM, first compound 0.0316 µM
[2] = second compound 0.00316 µM, first compound 0.1 µM
[3] = second compound 0.00316 µM, first compound 0.316 µM
[4] = second compound 0.00316 µM, first compound 1 µM
[5] = second compound 0.00316 µM, first compound 3.16 µM
[6] = second compound 0.00316 µM, first compound 10 µM
[7] = second compound 0.01 µM, first compound 0.0316 µM
[8] = second compound 0.01 µM, first compound 0.1 µM
[9] = second compound 0.01 µM, first compound 0.316 µM
[10] = second compound 0.01 µM, first compound 1 µM
[11] = second compound 0.01 µM, first compound 3.16 µM
[12] = second compound 0.01 µM, first compound 10 µM
[13] = second compound 0.0316 µM, first compound 0.0316 µM
[14] = second compound 0.0316 µM, first compound 0.1 µM
[15] = second compound 0.0316 µM, first compound 0.316 µM
[16] = second compound 0.0316 µM, first compound 1 µM
[17] = second compound 0.0316 µM, first compound 3.16 µM
[18] = second compound 0.0316 µM, first compound 10 µM
[19] = second compound 0.1 µM, first compound 0.0316 µM
[20] = second compound 0.1 µM, first compound 0.1 µM
[21] = second compound 0.1 µM, first compound 0.316 µM
[22] = second compound 0.1 µM, first compound 1 µM
[23] = second compound 0.1 µM, first compound 3.16 µM
[24] = second compound 0.1 µM, first compound 10 µM
[25] = second compound 0.316 µM, first compound 0.0316 µM
[26] = second compound 0.316 µM, first compound 0.1 µM
[27] = second compound 0.316 µM, first compound 0.316 µM
[28] = second compound 0.316 µM, first compound 1 µM
[29] = second compound 0.316 µM, first compound 3.16 µM
[30] = second compound 0.316 µM, first compound 10 µM
[31] = second compound 1 µM, first compound 0.0316 µM
[32] = second compound 1 µM, first compound 0.1 µM
[33] = second compound 1 µM, first compound 0.316 µM
[34] = second compound 1 µM, first compound 1 µM
[35] = second compound 1 µM, first compound 3.16 µM
[36] = second compound 1 µM, first compound 10 µM
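Also: spheroids exposed to agents for seven days before read-out.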

For `Cn1ncc(Cl)c1-c1cc(C(=O)NC(CN)Cc2cccc(F)c2)sc1Cl` (centres undefined) + CC(Nc1ccc2c(c1)OCCn1cc(N3C(=O)OCC3C(F)F)nc1-2)C(N)=O, the pIC50 (second compound 0.00316 µM) was less than 5.00, the pIC50 (second compound 0.01 µM) was less than 5.00 and the pIC50 (second compound 0.0316 µM) was less than 5.00. For the same compound, the pIC50 (second compound 0.1 µM) was less than 5.00, the pIC50 (second compound 0.316 µM) was less than 5.00 and the pIC50 (second compound 1 µM) was less than 5.00. The viability, T/C [1] was 106%, the viability, T/C [2] was 98.2% and the viability, T/C [3] was 105%. It also gave a viability, T/C [4] of 95.3%, a viability, T/C [5] of 93.6% and a viability, T/C [6] of 97.2%. The viability, T/C [7] was 109%, the viability, T/C [8] was 102% and the viability, T/C [9] was 110%. It also gave a viability, T/C [10] of 95.9%, a viability, T/C [11] of 97.6% and a viability, T/C [12] of 102%. It also gave a viability, T/C [13] of 109%, a viability, T/C [14] of 109% and a viability, T/C [15] of 99.4%. The viability, T/C [16] was 102%, the viability, T/C [17] was 90.3% and the viability, T/C [18] was 99.3%. It also gave a viability, T/C [19] of 88.7%, a viability, T/C [20] of 102% and a viability, T/C [21] of 103%. The viability, T/C [22] was 97.5%, the viability, T/C [23] was 97.1% and the viability, T/C [24] was 95%. The viability, T/C [25] was 85.7%, the viability, T/C [26] was 100% and the viability, T/C [27] was 95.9%. For the same compound, the viability, T/C [28] was 95.6%, the viability, T/C [29] was 98.7% and the viability, T/C [30] was 92.9%. The viability, T/C [31] was 87.1%, the viability, T/C [32] was 85.9% and the viability, T/C [33] was 91.9%. The viability, T/C [34] was 94.4%, the viability, T/C [35] was 91% and the viability, T/C [36] was 85.7%.

`Cn1nccc1Nc1nccc(-c2ccn(C(CO)c3ccc(Cl)c(F)c3)c(=O)c2)n1` (centres undefined) + CC(Nc1ccc2c(c1)OCCn1cc(N3C(=O)OCC3C(F)F)nc1-2)C(N)=O showed a pIC50 (second compound 0.00316 µM) of less than 5.00, a pIC50 (second compound 0.01 µM) of less than 5.00 and a pIC50 (second compound 0.0316 µM) of less than 5.00. It also gave a pIC50 (second compound 0.1 µM) of less than 5.00, a pIC50 (second compound 0.316 µM) of less than 5.00 and a pIC50 (second compound 1 µM) of less than 5.00. For the same compound, the viability, T/C [1] was 109%, the viability, T/C [2] was 96.3% and the viability, T/C [3] was 107%. The viability, T/C [4] was 99.2%, the viability, T/C [5] was 101% and the viability, T/C [6] was 94.2%. For the same compound, the viability, T/C [7] was 108%, the viability, T/C [8] was 97.5% and the viability, T/C [9] was 99.1%. For the same compound, the viability, T/C [10] was 94.7%, the viability, T/C [11] was 98.8% and the viability, T/C [12] was 88.7%. For the same compound, the viability, T/C [13] was 103%, the viability, T/C [14] was 103% and the viability, T/C [15] was 96.5%. For the same compound, the viability, T/C [16] was 94.4%, the viability, T/C [17] was 99.2% and the viability, T/C [18] was 91%. It also gave a viability, T/C [19] of 95.5%, a viability, T/C [20] of 98.5% and a viability, T/C [21] of 98.2%. The viability, T/C [22] was 93.1%, the viability, T/C [23] was 98.9% and the viability, T/C [24] was 88.7%. It also gave a viability, T/C [25] of 91.5%, a viability, T/C [26] of 90.7% and a viability, T/C [27] of 101%. For the same compound, the viability, T/C [28] was 96.2%, the viability, T/C [29] was 99.4% and the viability, T/C [30] was 87.4%. It also gave a viability, T/C [31] of 83.6%, a viability, T/C [32] of 84.4% and a viability, T/C [33] of 91%. For the same compound, the viability, T/C [34] was 87.7%, the viability, T/C [35] was 90.9% and the viability, T/C [36] was 82.2%.
